Patent US6894063B2, “Substituted urea neuropeptide Y Y5 Receptor antagonists” (Schering Corporation, priority 2000, dated 2005)

System: D-Trp34-NPY stimulated food intake
Assay: Screening for Y5 antagonist activity in vivo: D-Trp34-NPY stimulated food intake in rats
Parameters: species or system Long-Evans or Sprague-Dawley rats
Conditions: rat, oral doses 0.1, 0.3, 1 and 3 mg/kg one hour before icv D-Trp34-NPY; food consumption monitored at 60, 120 and 240 min
Method: Method for Screening Compound 14 of Example 14 for Y5 Antagonist Activity In Vivo
Adult male Long-Evans or Sprague-Dawley rats (200-250 g, Charles River, Mass.) were maintained in individual cages at 22° C. on a 12 hr light/12 hr dark cycle with lights on at 0400. Rats had free access to food (Teklad Lab Rodent Chow, Bartonville, Ill.) and water. All studies were conducted in an AAALAC accredited facility following protocols approved by the Animal Care and Use Committee of the Schering-Plough Research Institute. The procedures were performed in accordance with the principles and guidelines established by the NIH for the care and use of laboratory animals.
Rats were anesthetized by intramuscular injection of a mixture of ketamine and xylazine (100 and 10 mg/kg, respectively). A 22 gauge stainless steel cannula was stereotaxically implanted into the lateral ventricle using the following coordinates: 1 mm posterior to bregma, 1.5 mm lateral to midline, 3.6 mm ventral to dura. After a three week recovery period, all animals were tested for correct cannula placement by intracerebroventricular (icv) infusion of human NPY ([…]). […] Food consumption was monitored at 60, 120 and 240 min after icv infusion of peptides. Differences in food intake between groups were determined by analysis of variance followed by Dunnett's multiple comparison test.

CN(C(=O)Nc1ccc(-c2cc(F)cc(F)c2)cc1)C1CCN(c2nccs2)CC1 [Example 14]
ID50, inhibition of D-Trp34-NPY stimulated food intake: 0.5 mg/kg
